Source: patent US9708336B2, “Metallo-beta-lactamase inhibitors” (priority 2014, dated 2017)
Where two headings read alike, the source gives them in different places.

Columns and labels:
NDM-1 = NDM-1 (Klebsiella pneumoniae, UniProt C7C422); assay: biochemical; format: biochemical; conditions: read-out: NDM-1 IC50
[1] = system: Escherichia coli expressing NDM-1 (CLB30016); assay: Antibiotic potentiation activity: synergistic concentration (MITC95) with imipenem, OD600 growth; format: cell-based; conditions: for Escherichia coli expressing NDM-1 (CLB 30016) MITC95: concentration giving 95% inhibition of bacterial growth
Outline: (§1)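 CLB30005 was precultured on Mueller Hinton agar with 8 ug/ml imipenem, the other strains on trypticase soy agar with 5% sheep blood, overnight at 35 °C. Saline suspensions diluted 1:100 in 1.1× CAMHB received compound and 4 μg/ml imipenem, then 22–24 h at 35 °C before absorbance reading.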

[2] = system: Serratia marcescens expressing IMP-1 (CL5741); assay: as above; format: cell-based; conditions: for Serratia marcescens expressing IMP-1 (CL5741) MITC95: concentration giving 95% inhibition of bacterial growth
Outline: as §1

[3] = system: Klebsiella pneumoniae expressing VIM-1 (IHMA599644); assay: as above; format: cell-based; conditions: for Klebsiella pneumoniae expressing VIM-1 (IHMA 599644) MITC95: concentration giving 95% inhibition of bacterial growth
Outline: as §1

VIM-1 = VIM-1 (Pseudomonas aeruginosa (strain ATCC 15692 / DSM 22644 / CIP 104116 / JCM 14847 / LMG 12228 / 1C / PRS 101 / PAO1), UniProt A0A0F7KYQ8); assay: Enzyme activity: determination of IC50, fluorescence assay with CCF2-FA substrate (VIM-1); format: biochemical
IMP-1 = IMP-1 (Serratia marcescens, UniProt P52699); assay: biochemical; format: biochemical; conditions: read-out: IMP-1 IC50
[4] = NDM-1 enzyme, CCF2-FA fluorescence assay
[5] = Escherichia coli expressing NDM-1 (CLB30016), 95% growth inhibition
[6] = Serratia marcescens expressing IMP-1 (CL5741), 95% growth inhibition
[7] = Klebsiella pneumoniae expressing VIM-1 (IHMA599644), 95% growth inhibition
[8] = VIM-1 enzyme, CCF2-FA fluorescence assay, read-out: VIM-1 IC50
[9] = IMP-1 enzyme, CCF2-FA fluorescence assay
[10] = fluorescence assay with CCF2-FA substrate
[11] = fluorescence assay with CCF2-FA substrate, read-out: VIM-1 IC50
[12] = NDM-1 enzyme, CCF2-FA substrate
[13] = (CLB30016, NDM-1), 95% growth inhibition
[14] = Serratia marcescens CL5741 (IMP-1), 95% growth inhibition
[15] = Klebsiella pneumoniae IHMA599644 (VIM-1), 95% growth inhibition
[16] = VIM-1 enzyme, CCF2-FA substrate, read-out: VIM-1 IC50
[17] = IMP-1 enzyme, CCF2-FA substrate
[18] = CLB30016 (NDM-1), 95% inhibition of bacterial growth
[19] = CL5741 (IMP-1), 95% inhibition of bacterial growth
[20] = IHMA599644 (VIM-1), 95% inhibition of bacterial growth

Chain of NDM-1 (C7C422 whole entry, looked up, species assumed): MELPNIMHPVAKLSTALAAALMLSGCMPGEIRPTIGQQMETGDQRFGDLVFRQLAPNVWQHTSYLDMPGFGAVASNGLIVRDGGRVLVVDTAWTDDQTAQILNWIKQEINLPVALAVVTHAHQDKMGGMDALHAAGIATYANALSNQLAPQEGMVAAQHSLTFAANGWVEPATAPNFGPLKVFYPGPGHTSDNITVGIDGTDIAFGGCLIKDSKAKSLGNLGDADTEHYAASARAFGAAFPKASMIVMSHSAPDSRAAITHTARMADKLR
Chain of IMP-1 (P52699 whole entry, looked up): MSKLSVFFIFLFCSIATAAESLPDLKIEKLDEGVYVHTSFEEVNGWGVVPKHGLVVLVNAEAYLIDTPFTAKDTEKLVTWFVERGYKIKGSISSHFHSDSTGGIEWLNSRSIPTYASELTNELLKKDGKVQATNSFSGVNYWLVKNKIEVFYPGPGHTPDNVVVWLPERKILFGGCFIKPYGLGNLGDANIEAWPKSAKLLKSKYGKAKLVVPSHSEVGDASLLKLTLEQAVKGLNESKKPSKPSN

NS(=O)(=O)c1c(CC2CCNCC2(F)F)ccc(-c2ccc(C3CCNCC3)cc2)c1-c1nn[nH]n1 (stereo not drawn) [Example 465, 4-((3,3-difluoropiperidin-4-yl)methyl)-4′-(piperidin-4-yl)-2-(2H-tetrazol-5-yl)-[1,1′-biphenyl]-3-sulfonamide]
IC50 (NDM-1; [4]): 2.7 nM
Escherichia coli MITC95 [1, 5]: 3.125 µM
Serratia marcescens MITC95 [2, 6]: 3.125 µM
Klebsiella pneumoniae MITC95 [3, 7]: 12.5 µM
IC50 (VIM-1; [8]): 1.64 nM
IC50 (IMP-1; [9]): 3.31 nM

NS(=O)(=O)c1cccc(-c2cccc(S(N)(=O)=O)c2-c2nnn[nH]2)c1 [Example 118, 2-(1H-tetrazol-5-yl)-[1,1′-biphenyl]-3,3′-disulfonamide]
IC50 (NDM-1; [10]): 44.2 nM
Escherichia coli expressing NDM-1 (CLB 30016) MITC95 [1]: 0.7813 µM
Serratia marcescens expressing IMP-1 (CL5741) MITC95 [2]: 18.75 µM
Klebsiella pneumoniae expressing VIM-1 (IHMA 599644) MITC95 [3]: 50 µM
IC50 (VIM-1; [11]): 492 nM
IC50 (IMP-1; [10]): 1330 nM

NS(=O)(=O)c1cccc(-c2cccc3scnc23)c1-c1nnn[nH]1 [Example 422, 3-(Benzo[d]thiazol-4-yl)-2-(1H-tetrazol-5-yl)benzenesulfonamide]
IC50 (NDM-1; [4]): 1.3 nM
Escherichia coli MITC95 [1, 5]: 3.125 µM
Serratia marcescens MITC95 [2, 6]: 25 µM
Klebsiella pneumoniae MITC95 [3, 7]: 100 µM
IC50 (VIM-1; [8]): 22.6 nM
IC50 (IMP-1; [9]): 56 nM

Nc1cc(-c2cccc(S(N)(=O)=O)c2-c2nnn[nH]2)cc(N)n1 [Example 133, 3-(2,6-diaminopyridin-4-yl)-2-(1H-tetrazol-5-yl)benzenesulfonamide]
IC50 (NDM-1; [10]): 21.6 nM
Escherichia coli expressing NDM-1 (CLB 30016) MITC95 [1]: 0.3906 µM
Serratia marcescens expressing IMP-1 (CL5741) MITC95 [2]: 37.5 µM
Klebsiella pneumoniae expressing VIM-1 (IHMA 599644) MITC95 [3]: 6.25 µM
IC50 (VIM-1; [11]): 108 nM
IC50 (IMP-1; [10]): 4920 nM

NS(=O)(=O)c1c(CCCCCO)ccc(CCCCCO)c1-c1nn[nH]n1 [Example 542, 3,6-Bis(5-hydroxypentyl)-2-(2H-tetrazol-5-yl)benzenesulfonamide]
IC50 (NDM-1; [12]): 11.5 nM
Escherichia coli MITC95 [1, 13]: 25 µM
Serratia marcescens MITC95 [2, 14]: 6.25 µM
Klebsiella pneumoniae MITC95 [3, 15]: 100 µM
IC50 (VIM-1; [16]): 6.43 nM
IC50 (IMP-1; [17]): 7.9 nM

NCC(CN)c1ccc(-c2cccc(S(N)(=O)=O)c2-c2nnn[nH]2)cc1 [Example 509, 4′-(1,3-Diaminopropan-2-yl)-2-(1H-tetrazol-5-yl)-[1,1′-biphenyl]-3-sulfonamide]
IC50 (NDM-1; [12]): 57.4 nM
Escherichia coli MITC95 [1, 13]: 1.563 µM
Serratia marcescens MITC95 [2, 14]: 12.5 µM
Klebsiella pneumoniae MITC95 [3, 15]: 50 µM
IC50 (VIM-1; [16]): 396 nM
IC50 (IMP-1; [17]): 929 nM

NC1CCC(N2CC(c3ccc(-c4ccc(C(F)(F)F)c(S(N)(=O)=O)c4-c4nnn[nH]4)cc3)C2)C1 (stereo not drawn) [Example 808, 4′-[1-(3-aminocyclopentyl)azetidin-3-yl]-2-(1H-tetrazol-5-yl)-4-(trifluoromethyl)biphenyl-3-sulfonamide]
IC50 (NDM-1; [10]): 3.57 nM
Escherichia coli MITC95 [1, 18]: 1.563 µM
Serratia marcescens MITC95 [2, 19]: 3.125 µM
Klebsiella pneumoniae MITC95 [3, 20]: 25 µM
IC50 (VIM-1; [11]): 25.3 nM
IC50 (IMP-1; [10]): 8.44 nM

CNC1CCc2c(-c3ccc(C(F)(F)F)c(S(N)(=O)=O)c3-c3nnn[nH]3)cccc21 (stereo not drawn) [Example 726, 3-[1-(methylamino)-2,3-dihydro-1H-inden-4-yl]-2-(1H-tetrazol-5-yl)-6-(trifluoromethyl)benzenesulfon-amide]
IC50 (NDM-1; [12]): 26.8 nM
Escherichia coli MITC95 [1, 13]: 12.5 µM
Serratia marcescens MITC95 [2, 14]: 25 µM
Klebsiella pneumoniae MITC95 [3, 15]: 3.125 µM
IC50 (VIM-1; [16]): 1.21 nM
IC50 (IMP-1; [17]): 58.9 nM

NS(=O)(=O)c1cccc(-c2ccc(CN3CC(O)C(F)C3)cc2)c1-c1nnn[nH]1 (stereo not drawn) [Example 396, 4′-[(3-fluoro-4-hydroxypyrrolidin-1-yl)methyl]-2-(1H-tetrazol-5-yl)biphenyl-3-sulfonamide]
IC50 (NDM-1; [4]): 3.21 nM
Escherichia coli MITC95 [1, 5]: 1.172 µM
Serratia marcescens MITC95 [2, 6]: 1.172 µM
Klebsiella pneumoniae MITC95 [3, 7]: 100 µM
IC50 (VIM-1; [8]): 181 nM
IC50 (IMP-1; [9]): 22.4 nM

CC(C)(O)C1CN(c2ccc(-c3cccc(S(N)(=O)=O)c3-c3nnn[nH]3)cn2)C1 [Example 624, 3-[6-[3-(1-hydroxy-1-methyl-ethyl)azetidin-1-yl]-3-pyridyl]-2-(1H-tetrazol-5-yl)benzenesulfonamide]
IC50 (NDM-1; [12]): 10.2 nM
Escherichia coli MITC95 [1, 13]: 7.813 µM
Serratia marcescens MITC95 [2, 14]: 12.5 µM
Klebsiella pneumoniae MITC95 [3, 15]: >200 µM
IC50 (VIM-1; [16]): 559 nM
IC50 (IMP-1; [17]): 86.2 nM

N#Cc1cccc2ncc(-c3cccc(S(N)(=O)=O)c3-c3nnn[nH]3)n12 [Example 649, 3-(5-cyanoimidazo[1,2-a]pyridin-3-yl)-2-(1H-tetrazol-5-yl)benzenesulfonamide]
IC50 (NDM-1; [12]): 2.87 nM
Escherichia coli MITC95 [1, 13]: 2.344 µM
Serratia marcescens MITC95 [2, 14]: 3.125 µM
Klebsiella pneumoniae MITC95 [3, 15]: 12.5 µM
IC50 (VIM-1; [16]): 12.8 nM
IC50 (IMP-1; [17]): 48.4 nM

CNC(=O)CNCc1ccc(-c2cccc(S(N)(=O)=O)c2-c2nnn[nH]2)cc1 [Example 371, N-methyl-N~2~-{[3′-sulfamoyl-2′-(1H-tetrazol-5-yl)biphenyl-4-yl]methyl}glycinamide]
IC50 (NDM-1; [4]): 8.5 nM
Escherichia coli MITC95 [1, 5]: 0.7813 µM
Serratia marcescens MITC95 [2, 6]: 2.344 µM
Klebsiella pneumoniae MITC95 [3, 7]: 100 µM
IC50 (VIM-1; [8]): 370 nM
IC50 (IMP-1; [9]): 78.3 nM

CN(C)C1CCN(c2ccc(-c3cccc(S(N)(=O)=O)c3-c3nnn[nH]3)cn2)C1 (stereo not drawn) [Example 627, 3-[6-[3-(dimethylamino)pyrrolidin-1-yl]-3-pyridyl]-2-(1H-tetrazol-5-yl)benzenesulfonamide]
IC50 (NDM-1; [12]): 32.9 nM
Escherichia coli MITC95 [1, 13]: 1.172 µM
Serratia marcescens MITC95 [2, 14]: 12.5 µM
Klebsiella pneumoniae MITC95 [3, 15]: 100 µM
IC50 (VIM-1; [16]): 830 nM
IC50 (IMP-1; [17]): 415 nM

NS(=O)(=O)c1c(C(F)(F)F)ccc([C@H]2CC[C@H](NCC3CCNCC3)CC2)c1-c1nnn[nH]1 [Example 680, 3-{4-[(piperidin-4-ylmethyl)amino]cyclohex-yl}-2-(1H-tetrazol-5-yl)-6-(trifluoromethyl)benzene sulfonamide]
IC50 (NDM-1; [12]): 41.4 nM
Escherichia coli MITC95 [1, 13]: 1.563 µM
Serratia marcescens MITC95 [2, 14]: 3.125 µM
Klebsiella pneumoniae MITC95 [3, 15]: 6.25 µM
IC50 (VIM-1; [16]): 5.16 nM
IC50 (IMP-1; [17]): 86.6 nM

Nc1nc2c(-c3ccc(CCO)c(S(N)(=O)=O)c3-c3nn[nH]n3)cccc2s1 [Example 531, 3-(2-Aminobenzo[d]thiazol-4-yl)-6-(2-hydroxyethyl)-2-(2H-tetrazol-5-yl)benzenesulfonamide]
IC50 (NDM-1; [12]): 2.07 nM
Escherichia coli MITC95 [1, 13]: 6.25 µM
Serratia marcescens MITC95 [2, 14]: 12.5 µM
Klebsiella pneumoniae MITC95 [3, 15]: 12.5 µM
IC50 (VIM-1; [16]): 8.36 nM
IC50 (IMP-1; [17]): 32.1 nM

C[N+]1(C)CC(c2ccc(-c3ccc(C(F)(F)F)c(S(N)(=O)=O)c3-c3nn[nH]n3)cc2)C1 [Example 435, 1,1-dimethyl-3-(3′-sulfamoyl-2′-(2H-tetrazol-5-yl)-4′-(trifluoromethyl)-[1,1′-biphenyl]-4-yl)azetidin-1-ium]
IC50 (NDM-1; [4]): 12 nM
Escherichia coli MITC95 [1, 5]: 1.281 µM
Serratia marcescens MITC95 [2, 6]: 0.25 µM
Klebsiella pneumoniae MITC95 [3, 7]: 3.125 µM
IC50 (VIM-1; [8]): 2.37 nM
IC50 (IMP-1; [9]): 11.1 nM

CNCCN(C)c1ccc(-c2cccc(S(N)(=O)=O)c2-c2nnn[nH]2)cn1 [Example 637, 3-[6-[methyl-[2-(methylamino)ethyl]amino]-3-pyridyl]-2-(1H-tetrazol-5-yl)benzenesulfonamide]
IC50 (NDM-1; [12]): 52 nM
Escherichia coli MITC95 [1, 13]: 2.344 µM
Serratia marcescens MITC95 [2, 14]: 25 µM
Klebsiella pneumoniae MITC95 [3, 15]: 50 µM
IC50 (VIM-1; VIM-1 IC50, VIM-1 enzyme, CCF2-FA substrate): 453 nM
IC50 (IMP-1; [17]): 925 nM

NS(=O)(=O)c1cccc(-c2cnc3ccccc3c2)c1-c1nnn[nH]1 [Example 165, 3-(quinolin-3-yl)-2-(1H-tetrazol-5-yl)benzenesulfonamide]
IC50 (NDM-1; [10]): 1.24 nM
Escherichia coli expressing NDM-1 (CLB 30016) MITC95 [1]: 0.5859 µM
Serratia marcescens expressing IMP-1 (CL5741) MITC95 [2]: 9.375 µM
Klebsiella pneumoniae expressing VIM-1 (IHMA 599644) MITC95 [3]: 37.5 µM
IC50 (VIM-1; [11]): 11.6 nM
IC50 (IMP-1; [10]): 214 nM

NS(=O)(=O)c1c(C(F)(F)F)ccc([C@H]2CC[C@H](N)CC2)c1-c1nnn[nH]1 [Example 820, 3-((1r,4r)-4-aminocyclohexyl)-2-(1H-tetrazol-5-yl)-6-(trifluoromethyl)benzenesulfonamide]
IC50 (NDM-1; [10]): 13.5 nM
Escherichia coli MITC95 [1, 18]: 0.3906 µM
Serratia marcescens MITC95 [2, 19]: 0.7813 µM
Klebsiella pneumoniae MITC95 [3, 20]: 0.7813 µM
IC50 (VIM-1; [11]): 0.659 nM
IC50 (IMP-1; [10]): 39.4 nM
